The IC50 is the concentration that inhibits the measured activity by half.

Molecules are shown by their SMILES.

This is an account of results in article PMC13110364, “Design, Synthesis, and Biological Evaluation of Novel Triazine‐Based Dual Histone Deacetylase/phosphatidylinositol 3‐kinase Inhibitors for Breast Cancer Therapy” (Chemmedchem, 2026).

Data set [1] relates to JIMT1 breast cancer cells. As to the kind of experiment: MTS cell viability assay, JIMT1. It is filed as cell-based. Conditions: Homo sapiens, JIMT-1, 72 h treatment. As to the method: (§1) The cell viability effects of compounds 5a–5f were assessed in LY2, JIMT1, and MDA‐MB‐231 breast cancer cell lines using the 3‐(4,5‐dimethylthiazol‐2‐yl)‐5‐(3‐carboxymethoxyphenyl)‐2‐(4‐sulfophenyl)‐2H‐tetrazolium (MTS) assay. The MTS assay measures metabolic viability and serves as a first‐pass screen.
(§2) JIMT‐1 (DSMZ ACC 589) and MDA‐MB‐231 (ATCC HTB‐26) breast cancer cell lines were maintained in Dulbecco's Modified Eagle Medium (DMEM) High Glucose with L‐glutamine (D5796, Sigma) supplemented with 10% fetal calf serum. MCF7‐derivative LY2 breast cancer cells were previously described (REF: PMID: 33420368). LY2 cells were cultured in phenol red‐free MEM (PRF‐MEM; 51 200‐046, Gibco) supplemented with 10% charcoal dextran‐stripped fetal calf serum (CDS‐FCS; F6765, Merck), 2 mmol/L L‐glutamine (G7513, Merck), and 10^−8 mol/L 4‐hydroxytamoxifen (4‐OHT; H7904, Merck). All cell lines were maintained at 37°C in a humidified incubator with 5% CO2 and regularly authenticated and tested for mycoplasma.
(§3) Cell viability was evaluated in response to increasing concentrations of 5a‐5f (0.3, 1, 3, 10, and 30 μM) or vehicle control (0.1% DMSO). LY2, JIMT1, and MDA‐MB‐231 cells were seeded at a density of 2,500 cells per well in 96‐well plates with a total volume of 100 μL per well. Prior to treatment, cells were serum‐deprived for 24 h. Following serum depletion, cells were treated in complete growth medium for 72 h. Cell viability was assessed using the MTS assay (G1111, Promega) according to the manufacturer's instructions. Absorbance was measured at 495 nm using a BioTek Synergy HTX Multi‐Mode Microplate Reader (Agilent). Results were normalized to the vehicle control (DMSO), and the half‐maximal inhibitory concentration (IC50) of the inhibitors was determined by nonlinear regression (curve fit) using a four‐parameter variable slope model.
A general note: Tetrazolium assays rely on reduction of a dye to a coloured formazan, in cell work by metabolically active cells.

Data set [2] relates to MDA‐MB‐231 triple‐negative breast cancer cell line. As to the kind of experiment: MTS cell viability assay, MDA-MB-231. In kind it is cell-based. The note with it: Homo sapiens, MDA-MB-231, 72 h, MDA‐MB‐231 cells, 72 h treatment. The procedure: as §1, §2, §3
A further data set deals with LY2 breast cancer cells. As to the kind of experiment: MTS cell viability assay, LY2. In kind it is cell-based. Conditions: 72 h treatment. The procedure: as §1, §2, §3
In another data set the test system is MCF‐10A cells. As to the kind of experiment: Cell viability in nontransformed cell line MCF-10A. It is filed as cell-based. Conditions: Homo sapiens. The source says:
Thus, further optimization will be required to improve the therapeutic index.
FIGURE 5 Dose‐dependent effects of compound treatment (5b and 5f) on nontransformed breast cell viability across MCF‐10A.

A further data set concerns HDAC2. Also noted: method as in PMID 22693356. Conditions: cited from earlier work.
The next data set concerns HDAC5. Also noted: method as in PMID 22693356. The note with it: cited from earlier work.
The test system of another data set is HDAC9. Also noted: method as in PMID 22693356. Conditions: cited from earlier work.
A further data set deals with HDAC. More on the design: method as in earlier work. The note with it: cited from earlier work.
The target in a further data set is PI3Kα (Homo sapiens, UniProt P42336). More on the design: method as in earlier work. Conditions: cited from earlier work.
Another data set concerns the target HDAC1 (Homo sapiens, UniProt Q13547). Also noted: method as in PMID 32022441. Conditions: cited from earlier work.
For another data set, the target named is HDAC4 (Homo sapiens, UniProt P56524). Also noted: method as in PMID 32022441. The note with it: cited from earlier work.
Details of data set [3]: method as in PMID 32022441. Conditions: previous studies of the authors ref 25; cited from earlier work.

Chain of HDAC4 (P56524 whole entry): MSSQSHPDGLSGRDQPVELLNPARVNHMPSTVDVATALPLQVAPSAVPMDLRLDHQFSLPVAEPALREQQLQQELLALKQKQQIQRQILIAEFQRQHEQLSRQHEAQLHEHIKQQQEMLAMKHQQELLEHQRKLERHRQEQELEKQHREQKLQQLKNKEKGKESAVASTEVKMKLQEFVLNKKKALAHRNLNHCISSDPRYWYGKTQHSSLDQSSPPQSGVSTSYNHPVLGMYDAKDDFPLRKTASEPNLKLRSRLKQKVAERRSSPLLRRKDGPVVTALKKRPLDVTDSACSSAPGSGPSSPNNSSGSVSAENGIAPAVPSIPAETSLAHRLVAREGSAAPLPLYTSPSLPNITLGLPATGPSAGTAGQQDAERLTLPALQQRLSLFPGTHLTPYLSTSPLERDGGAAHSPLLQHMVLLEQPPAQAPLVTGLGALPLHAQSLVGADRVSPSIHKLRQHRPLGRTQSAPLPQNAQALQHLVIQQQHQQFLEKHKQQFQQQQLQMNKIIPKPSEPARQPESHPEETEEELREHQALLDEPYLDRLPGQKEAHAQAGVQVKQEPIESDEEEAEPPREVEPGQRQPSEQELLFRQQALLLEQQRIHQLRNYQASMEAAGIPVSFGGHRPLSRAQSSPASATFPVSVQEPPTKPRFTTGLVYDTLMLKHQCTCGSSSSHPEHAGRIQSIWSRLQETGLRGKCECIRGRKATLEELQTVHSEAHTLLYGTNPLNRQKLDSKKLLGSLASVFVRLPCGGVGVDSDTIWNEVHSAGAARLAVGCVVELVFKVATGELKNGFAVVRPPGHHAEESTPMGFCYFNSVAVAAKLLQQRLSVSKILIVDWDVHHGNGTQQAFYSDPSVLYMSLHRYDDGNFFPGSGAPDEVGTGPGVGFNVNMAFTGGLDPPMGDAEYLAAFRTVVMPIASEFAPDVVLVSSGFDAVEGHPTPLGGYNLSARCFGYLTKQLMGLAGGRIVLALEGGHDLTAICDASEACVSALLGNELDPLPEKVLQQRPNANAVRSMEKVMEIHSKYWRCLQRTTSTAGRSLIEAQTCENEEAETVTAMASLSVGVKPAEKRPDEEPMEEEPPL
Chain of HDAC1 (Q13547 whole entry): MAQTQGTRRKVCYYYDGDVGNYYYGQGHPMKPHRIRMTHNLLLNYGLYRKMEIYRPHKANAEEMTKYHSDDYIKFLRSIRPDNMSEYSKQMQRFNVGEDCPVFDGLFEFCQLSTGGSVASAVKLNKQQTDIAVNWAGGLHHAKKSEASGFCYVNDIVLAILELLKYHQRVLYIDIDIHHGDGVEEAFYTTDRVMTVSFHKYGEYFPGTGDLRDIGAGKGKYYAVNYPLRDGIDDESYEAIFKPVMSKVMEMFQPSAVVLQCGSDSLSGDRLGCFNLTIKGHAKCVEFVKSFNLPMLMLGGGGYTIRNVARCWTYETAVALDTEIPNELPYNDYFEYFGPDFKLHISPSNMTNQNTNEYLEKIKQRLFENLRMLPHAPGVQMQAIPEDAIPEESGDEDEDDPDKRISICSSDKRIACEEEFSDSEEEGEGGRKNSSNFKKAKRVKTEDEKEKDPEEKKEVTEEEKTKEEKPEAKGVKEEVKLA
Chain of PI3Kα (P42336 whole entry): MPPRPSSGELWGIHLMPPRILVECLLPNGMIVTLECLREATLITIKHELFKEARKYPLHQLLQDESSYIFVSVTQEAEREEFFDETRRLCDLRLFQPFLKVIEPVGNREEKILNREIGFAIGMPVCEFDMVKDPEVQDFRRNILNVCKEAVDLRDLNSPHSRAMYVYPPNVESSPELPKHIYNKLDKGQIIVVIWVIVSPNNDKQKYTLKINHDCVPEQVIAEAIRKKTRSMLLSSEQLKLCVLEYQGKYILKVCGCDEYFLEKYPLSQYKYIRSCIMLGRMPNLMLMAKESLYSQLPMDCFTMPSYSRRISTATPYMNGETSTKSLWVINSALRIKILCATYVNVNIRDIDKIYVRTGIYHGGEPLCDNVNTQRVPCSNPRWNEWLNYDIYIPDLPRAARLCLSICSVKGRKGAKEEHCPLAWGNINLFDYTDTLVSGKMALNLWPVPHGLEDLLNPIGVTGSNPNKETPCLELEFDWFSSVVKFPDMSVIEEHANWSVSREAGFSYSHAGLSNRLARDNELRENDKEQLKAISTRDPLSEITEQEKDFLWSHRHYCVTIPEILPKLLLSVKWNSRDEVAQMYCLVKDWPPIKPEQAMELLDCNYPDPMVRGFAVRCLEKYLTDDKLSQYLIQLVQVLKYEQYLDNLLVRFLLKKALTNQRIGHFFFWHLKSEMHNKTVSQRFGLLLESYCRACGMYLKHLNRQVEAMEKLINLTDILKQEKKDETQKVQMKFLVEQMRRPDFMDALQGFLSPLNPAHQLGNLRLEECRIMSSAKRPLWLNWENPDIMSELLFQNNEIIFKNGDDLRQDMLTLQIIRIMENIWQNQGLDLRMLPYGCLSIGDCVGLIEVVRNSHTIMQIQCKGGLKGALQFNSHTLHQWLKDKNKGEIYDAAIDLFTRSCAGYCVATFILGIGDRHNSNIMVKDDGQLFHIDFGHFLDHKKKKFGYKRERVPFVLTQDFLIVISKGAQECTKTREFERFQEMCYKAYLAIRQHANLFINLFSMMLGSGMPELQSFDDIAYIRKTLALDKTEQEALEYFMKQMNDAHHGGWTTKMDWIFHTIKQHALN
Chain of PI3Kα (P27986 whole entry partner): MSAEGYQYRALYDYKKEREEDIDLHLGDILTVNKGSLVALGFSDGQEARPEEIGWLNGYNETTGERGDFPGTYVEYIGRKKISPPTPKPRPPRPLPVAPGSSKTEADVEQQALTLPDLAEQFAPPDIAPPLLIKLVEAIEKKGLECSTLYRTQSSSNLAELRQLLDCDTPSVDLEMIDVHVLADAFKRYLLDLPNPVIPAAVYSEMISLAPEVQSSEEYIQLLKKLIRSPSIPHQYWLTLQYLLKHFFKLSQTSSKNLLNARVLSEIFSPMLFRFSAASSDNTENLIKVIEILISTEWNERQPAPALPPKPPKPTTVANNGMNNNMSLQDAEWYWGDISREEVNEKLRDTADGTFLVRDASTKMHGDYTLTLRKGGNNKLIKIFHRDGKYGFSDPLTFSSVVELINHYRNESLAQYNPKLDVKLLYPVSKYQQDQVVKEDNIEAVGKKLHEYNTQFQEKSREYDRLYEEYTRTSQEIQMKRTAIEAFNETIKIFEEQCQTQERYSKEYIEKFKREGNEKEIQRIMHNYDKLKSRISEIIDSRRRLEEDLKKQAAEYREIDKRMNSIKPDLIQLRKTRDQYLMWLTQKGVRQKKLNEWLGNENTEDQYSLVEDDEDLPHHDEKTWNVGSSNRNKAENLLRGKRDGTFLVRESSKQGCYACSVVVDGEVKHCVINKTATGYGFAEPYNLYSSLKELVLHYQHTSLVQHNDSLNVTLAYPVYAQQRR

As to `O=C(NO)c1ccc(CNc2nc(-c3ccccc3)nc(N3CCOCC3)n2)cc1` [Compound 5a, N‐Hydroxy‐4‐(((4‐Morpholino‐6‐Phenyl‐1,3,5‐Triazin‐2‐yl)Amino)Methyl)Benzamide], the IC50 came out at 8.58 ± 0.14 µM in [1], 5.8 ± 0.6 µM in data set [2] and 10.9 µM in the data set on LY2 breast cancer cells.
The corresponding values for `O=C(NO)c1ccc(CNc2nc(-c3cccnc3)nc(N3CCOCC3)n2)cc1` [Compound 5c, N‐Hydroxy‐4‐(((4‐Morpholino‐6‐(pyridin‐3‐yl)−1,3,5‐Triazin‐2‐yl)Amino)Methyl)Benzamide] are 10.5 µM, 9.43 µM and 10 µM.
For `Nc1ccc(-c2nc(NCc3ccc(C(=O)NO)cc3)nc(N3CCOCC3)n2)cn1` [Compound 5d, 4‐(((4‐(6‐Aminopyridin‐3‐yl)‐6‐Morpholino‐1,3,5‐Triazin‐2‐yl)Amino)Methyl)‐N‐Hydroxybenzamide], the IC50 in data set [1] is 8.97 ± 2.64 µM; in data set [2] it was 13.1 ± 6.08 µM; with LY2 breast cancer cells, 10.3 ± 3 µM.
The like results for `Nc1ncc(-c2nc(NCc3ccc(C(=O)NO)cc3)nc(N3CCOCC3)n2)cn1` [Compound 5e, 4‐(((4‐(2‐Aminopyrimidin‐5‐yl)‐6‐Morpholino‐1,3,5‐Triazin‐2‐yl)Amino)Methyl)‐N‐Hydroxybenzamide] were, in that order, 15.6 ± 6.48 µM, 10.4 µM and 8.84 ± 3.47 µM.
Turning to `COc1ccc(-c2nc(N3CCOCC3)c3sc(CN(C)c4ncc(C(=O)NO)cn4)cc3n2)cn1` [Fimepinostat, fimepinostat, reference compound], the IC50 was under 0.3 µM in [1]; under 0.3 µM in [2]; under 0.3 µM with LY2 breast cancer cells; under 0.3 µM with MCF‐10A cells; […] in the data set on HDAC2; […] in the data set with HDAC5. Also, in the data set on HDAC9, the 50% inhibitory concentration (IC50) is […].
For the compound `CNc1ccc(-c2nc(N3CCOCC3)c3sc(CN(C)c4ncc(C(=O)NO)cn4)cc3n2)cn1` [Ifupinostat, ifupinostat], the IC50 with HDAC was 0.1 to 1 µM; on PI3Kα, under 0.1 µM.
Consider `O=C(NO)c1ccc(/C=N/NC(=O)c2cc(N3CCOCC3)nc(-c3cccc(O)c3)n2)cc1` [LASSBio-2208], for which the IC50 on HDAC1 and at HDAC4 was over 3 µM each time. The “stability of the NAH motif” value in data set [3] is on record as “acid‐labile”.
